ChEMBL document CHEMBL5543059, “Discovery of anti-inflammatory natural flavonoids: Diverse scaffolds and promising leads for drug discovery” (Eur J Med Chem, 2023)
One block for each compound: values may come before it.

Experiments:
Mus musculus [1] = assay: Anti-inflammatory activity in mouse model of xylene-induced auricle edema assessed as inhibition of ear swelling at 50 mg/kg, IG pre-treated for 1 hr followed by xylene addition and measured after 1 hr relative to control; assay type: functional; parameters: scale not given: the % may be the effect or the level left
HEK293 = assay: Anti-inflammatory activity against TNFalpha-induced HEK293 cells assessed as inhibition of NF-kappaB activity pre-indubated for 1 hr followed by TNFalpha treatment measured for 5 hrs by luciferase based assay; assay type: functional, cell-based; settings: Homo sapiens
RAW264.7 [2] = assay: Anti-inflammatory activity in mouse RAW264.7 cells assessed as inhibition of LPS-induced NO production at 20 uM by Griess reagent based analysis relative to control; assay type: functional; parameters: scale not given: the % may be the effect or the level left
[3] = biological target: T1, Polyunsaturated fatty acid 5-lipoxygenase (Homo sapiens) (UniProt P09917); assay: Inhibition of 5-Lipoxygenase (unknown origin) at 30 uM relative to control
T1 sequence (whole entry): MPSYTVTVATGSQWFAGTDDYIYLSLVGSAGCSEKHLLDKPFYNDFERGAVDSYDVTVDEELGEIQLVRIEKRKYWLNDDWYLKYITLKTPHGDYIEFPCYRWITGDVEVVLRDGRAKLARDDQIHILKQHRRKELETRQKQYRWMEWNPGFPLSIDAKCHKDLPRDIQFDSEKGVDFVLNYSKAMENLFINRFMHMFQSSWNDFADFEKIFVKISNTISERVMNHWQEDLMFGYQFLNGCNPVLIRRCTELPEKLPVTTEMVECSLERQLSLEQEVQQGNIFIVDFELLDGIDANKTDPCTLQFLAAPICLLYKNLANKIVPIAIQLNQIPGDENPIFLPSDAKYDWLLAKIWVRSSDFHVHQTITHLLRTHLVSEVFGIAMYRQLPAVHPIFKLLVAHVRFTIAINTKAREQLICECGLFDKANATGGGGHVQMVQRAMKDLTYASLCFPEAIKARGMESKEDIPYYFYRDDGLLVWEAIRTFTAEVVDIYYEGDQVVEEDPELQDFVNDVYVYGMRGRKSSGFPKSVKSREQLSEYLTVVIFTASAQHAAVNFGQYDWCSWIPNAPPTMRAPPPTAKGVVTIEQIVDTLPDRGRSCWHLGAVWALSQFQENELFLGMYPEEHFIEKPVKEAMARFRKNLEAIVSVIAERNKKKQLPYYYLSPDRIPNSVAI

Mus musculus [4] = assay: Anti-inflammatory activity in mouse model of xylene-induced auricle edema assessed as inhibition of ear swelling at 200 mg/kg, IG pre-treated for 1 hr followed by xylene addition and measured after 1 hr relative to control; assay type: functional; parameters: scale not given: the % may be the effect or the level left
J774.A1 [5] = assay: Anti-inflammatory activity in mouse J774.A1 cells assessed as suppression of LPS-induced IL-6 production by ELISA analysis; assay type: functional, cell-based
RAW264.7 [6] = assay: Antiinflammatory activity against mouse RAW264.7 cells assessed as reduction of LPS-induced NO production; assay type: functional, cell-based
RAW264.7 [7] = assay: Antiinflammatory activity in mouse RAW264.7 cells assessed as suppression of LPS-induced iNOS expression preincubated with compound for 1 hrs followed by LPS-stimulation and measured after 24 hrs by Western blot analysis; assay type: functional, cell-based
Neutrophil [8] = assay: Inhibition of fMLF/CB-induced human Neutrophil activation assessed as reduction in elastase release using MeO-Suc-Ala-Ala-Pro-Val-pnitroanilide as substrate pre-incubated for 2 mins followed by fMLF/CB-stimulation and measured for 5 mins; assay type: functional, cell-based
Neutrophil [9] = assay: Inhibition of fMLF/CB-induced human Neutrophil activation assessed as reduction in superoxide anion generation pre-incubated for 2 mins prior to CB induction for 3 mins followed by fMLF addition by spectrophotometric analysis; assay type: functional, cell-based
BV-2 [10] = assay: Antineuroinflammatory activity in LPS-induced mouse BV-2 cells assessed as inhibition of NO production pre-incubated for 2 hr followed by LPS-stimulation measured for 24 hrs by Griess reagent based analysis; assay type: functional, cell-based
Neutrophil [11] = assay: Inhibition of fMLF/CB-induced human Neutrophil activation assessed as reduction in superoxide anion; assay type: functional, cell-based
Neutrophil [12] = assay: Inhibition of fMLF/CB-induced human Neutrophil activation assessed as reduction in elastase release; assay type: functional, cell-based
Neutrophil [13] = assay: Inhibition of fMLF/CB-induced human Neutrophil activation assessed as reduction in superoxide anion at 10 uM relative to control; assay type: functional; parameters: scale not given: the % may be the effect or the level left
BV-2 [14] = assay: Anti-inflammatory activity in mouse BV-2 cells assessed as inhibition of LPS-induced NO production preincubated with compound for 1 hrs followed by LPS stimulation and measured after 24 hrs by Griess reagent based assay; assay type: functional, cell-based
[15] = biological target: T2, Inhibitor of nuclear factor kappa-B kinase subunit beta (Homo sapiens) (UniProt O14920); assay: Inhibition of IKKbeta phosphorylation in high glucose-induced HUVEC cells at 10 uM relative to control; assay type: cell-based
T2 sequence (whole entry): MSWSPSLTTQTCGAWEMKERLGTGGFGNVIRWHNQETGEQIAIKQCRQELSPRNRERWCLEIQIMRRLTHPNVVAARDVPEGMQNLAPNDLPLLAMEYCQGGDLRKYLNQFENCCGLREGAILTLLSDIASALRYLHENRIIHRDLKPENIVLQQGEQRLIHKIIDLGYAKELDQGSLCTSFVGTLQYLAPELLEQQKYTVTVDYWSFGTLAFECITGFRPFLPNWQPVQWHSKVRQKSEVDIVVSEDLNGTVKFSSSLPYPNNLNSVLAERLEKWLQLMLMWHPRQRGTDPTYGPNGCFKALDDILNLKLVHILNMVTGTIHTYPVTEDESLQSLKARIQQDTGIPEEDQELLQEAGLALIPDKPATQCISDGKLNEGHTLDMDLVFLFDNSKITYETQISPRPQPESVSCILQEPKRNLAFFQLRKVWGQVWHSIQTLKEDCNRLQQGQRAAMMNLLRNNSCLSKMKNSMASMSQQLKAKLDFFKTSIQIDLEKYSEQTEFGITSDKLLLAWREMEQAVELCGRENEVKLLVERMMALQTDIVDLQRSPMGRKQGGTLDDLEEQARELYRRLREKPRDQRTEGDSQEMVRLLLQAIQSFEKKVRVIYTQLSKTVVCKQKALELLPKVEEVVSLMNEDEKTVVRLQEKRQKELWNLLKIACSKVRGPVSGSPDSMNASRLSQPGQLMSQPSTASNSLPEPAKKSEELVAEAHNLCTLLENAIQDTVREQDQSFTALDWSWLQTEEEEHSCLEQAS

[16] = tested on: Rat aortic endothelial cell; assay: Inhibition of NF-kappaB p65 phosphorylation in high glucose-induced Rat aortic endothelial cell at 10 uM relative to control; assay type: cell-based
[17] = biological target: T2, Inhibitor of nuclear factor kappa-B kinase subunit beta (Homo sapiens); assay: Inhibition of IKKbeta phosphorylation in high glucose-induced HUVEC cells at 0.1 uM relative to control; assay type: cell-based
[18] = tested on: Rat aortic endothelial cell; assay: Inhibition of NF-kappaB p65 phosphorylation in high glucose-induced Rat aortic endothelial cell at 0.1 uM relative to control; assay type: cell-based
[19] = tested on: Rat aortic endothelial cell; assay: Inhibition of NF-kappaB p65 phosphorylation in high glucose-induced Rat aortic endothelial cell at 1 uM relative to control; assay type: cell-based
[20] = biological target: T2, Inhibitor of nuclear factor kappa-B kinase subunit beta (Homo sapiens); assay: Inhibition of IKKbeta phosphorylation in high glucose-induced HUVEC cells at 1 uM relative to control; assay type: cell-based
J774.A1 [21] = assay: Antiinflammatory activity against mouse J774.A1 cells assessed as inhibition of LPS-stimulated TNF-alpha level by ELISA method; assay type: functional, cell-based
RAW264.7 [22] = assay: Antiinflammatory activity against mouse RAW264.7 cells assessed as inhibition of LPS-stimulated TNF-alpha level by ELISA method; assay type: functional, cell-based
RAW264.7 [23] = assay: Anti-inflammatory activity in mouse RAW264.7 cells assessed as inhibition of LPS-induced nitric oxide production preincubated for 2 hrs followed by LPS stimulation and measured after 24 hrs by Griess assay; assay type: functional, cell-based

SMILES: COc1ccc(-c2cc(=O)c3c(OC)c(OC)c(OC)cc3o2)cc1
Activity (Mus musculus [1]): 42.8%

SMILES: COc1c(O)cc(O)c2c(=O)cc(-c3ccccc3)oc12 [WOGONIN]
IC50 (HEK293): 28.1 µM

inhibition [3]: 48.5%
SMILES: COc1cc2oc(-c3ccc(O)c(O)c3)cc(=O)c2c(O)c1OC [CIRSILIOL]
Activity (RAW264.7 [2]): 54%

SMILES: CC(=O)Oc1ccccc1C(=O)O [ASPIRIN]
Activity (Mus musculus [4]): 41.07%

IC50 (J774.A1 [5]): 8.7 µM
SMILES: CC(C)(O)c1ccccc1CC[C@@H](SCC1(CC(=O)O)CC1)c1cccc(/C=C/c2ccc3ccc(Cl)cc3n2)c1 [MONTELUKAST]

IC50 (RAW264.7 [6]): 29.3 µM
SMILES: CC(C)=CCc1c([C@@H]2CCc3ccc(O)cc3O2)cc2c(c1O)OC(C)(C)C=C2 [KAZINOL B]

SMILES: CC1=C(O)C(=O)C=C2C1=CC=C1[C@@]2(C)CC[C@@]2(C)[C@@H]3C[C@](C)(C(=O)O)CC[C@]3(C)CC[C@]12C [CELASTROL]
IC50 (RAW264.7 [7]): 1 µM

IC50 (Neutrophil [8]): ≤ 15.2 µM
IC50 (Neutrophil [9]): ≤ 12.5 µM
SMILES: COc1cc(O)c2c(=O)cc(-c3ccc(O)c(OC)c3)oc2c1 [VELUTIN]

SMILES: COc1ccc(-c2cc(=O)c3c(OC)c(OC)c(OC)cc3o2)cc1OC [SINENSETIN]
Activity (Mus musculus [1]): 58%

IC50 (BV-2 [10]): 12.4 µM
SMILES: CC(C)(O)[C@@H]1Cc2cc(/C=C/C(=O)c3ccc4c(c3O)C[C@H](C(C)(C)O)O4)ccc2O1

IC50 (Neutrophil [11]): 1.1 µM
IC50 (Neutrophil [12]): 3.2 µM
SMILES: O=c1cc(N2CCOCC2)oc2c(-c3ccccc3)cccc12 [LY-294002]
Activity (Neutrophil [13]): 96.5%

IC50 (J774.A1 [5]): 17.8 µM
IC50 (BV-2 [14]): 25.1 µM
SMILES: COc1cc(O)c2c(=O)c(OC)c(-c3ccc(OC)c(O)c3)oc2c1 [AYANIN]

inhibition [15]: 88.4%
inhibition [17]: 23.2%
inhibition [20]: 53.6%
SMILES: COc1c(O)cc2oc(-c3ccc(O)cc3)cc(=O)c2c1O
inhibition [16]: 93.2%
inhibition [18]: 26.1%
inhibition [19]: 57.4%

IC50 (J774.A1 [21]): 35.5 µM
IC50 (RAW264.7 [22]): 41.2 µM
SMILES: COc1cc(O)c2c(c1CC=C(C)C)OC(c1ccccc1)CC2=O (stereo not drawn)

IC50 (RAW264.7 [23]): 0.8 µM
SMILES: CC1(C)C=Cc2c(O)ccc(-c3coc4cc(O)cc(O)c4c3=O)c2O1

inhibition [3]: 46.9%
SMILES: COc1cc(-c2cc(=O)c3c(O)c(OC)c(O)cc3o2)c(O)cc1O
Activity (RAW264.7 [2]): 54%
